Assay results as given in patent US20130143929A1, “FUNGICIDAL IMIDAZOLES” (EI DU PONT DE NEMOURS AND COMPANY, priority 2010, published 2013).
Marks after values point to notes of the source that are not given here.

Experiments:
Type in all cases: in vivo
Conditions in all cases: 100 = 100% disease control
[1] = test system: Blumeria graminis f. sp. tritici (also known as Erysiphe graminis f. sp. tritici, the causal agent of wheat powdery mildew); assay: Test D: wheat powdery mildew, preventive spray on wheat seedlings, visual disease rating
Outline: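 Preventive test: seedlings sprayed to run-off and inoculated with powdery mildew spores one day later. Suspensions were made in 50/50 acetone/water with 250 ppm Trem 014 surfactant (200 ppm equals 800 g/ha). Visual ratings after 8 days at 20 °C give percent disease control versus controls.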

[2] = test system: Septoria tritici (the causal agent of wheat leaf blotch); assay: Test B: wheat leaf blotch, preventive spray on wheat seedlings, visual disease rating
Outline: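 Preventive test: Septoria tritici spores applied one day after run-off spraying of seedlings (200 ppm equals 800 g/ha; some tests 40 ppm). After 48 h at 24 °C saturated atmosphere and 19 days at 20 °C, disease scored visually as % control relative to untreated plants.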

[3] = test system: Botrytis cinerea (the causal agent of tomato Botrytis); assay: Test C: tomato Botrytis, preventive spray on tomato seedlings, visual disease rating
Outline: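 Preventive test: B. cinerea spore inoculation one day after tomato seedlings were sprayed to run-off with compound suspended in 50/50 acetone–water plus 250 ppm surfactant. Plants held 48 h at 20° C in saturated air, then 3 days at 24° C; visual ratings scored 100 (full control) to 0 versus controls; some entries used 40 ppm.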

[4] = test system: Puccinia recondite f. sp. tritici (the causal agent of wheat leaf rust); assay: Test A: wheat leaf rust, preventive spray on wheat seedlings, visual disease rating
Outline: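 This was a preventive test: Puccinia recondite f. sp. tritici inoculum was applied one day after compound spray to run-off. Test suspensions were made in 50/50 acetone/water with 250 ppm surfactant, at 200 ppm (800 g/ha equivalent) or 40 ppm. Visual ratings of % disease control relative to controls were made after 24 h of saturated humidity and 7 growth-chamber days, all at 20° C.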

[5] = no asterisk: standard test suspension concentration, 0 = no control relative to controls
[6] = asterisk: 40 ppm test suspension, 0 = no control

SMILES	Test D rating (% disease control, wheat powdery mildew) [1, 5] [%]	Test B rating (% disease control, wheat leaf blotch) [2, 5] [%]	Test C rating (% disease control, tomato Botrytis) [3, 5] [%]	Test A rating (% disease control, wheat leaf rust) [4, 5] [%]	Test D rating (% disease control, wheat powdery mildew) [1, 6]	Test B rating (% disease control, wheat leaf blotch) [2, 6]	Test C rating (% disease control, tomato Botrytis) [3, 6]	Test A rating (% disease control, wheat leaf rust) [4, 6]
Cc1cc(F)ccc1C(O)c1c(Br)nc(C)n1-c1c(F)cc(F)cc1Br (centres unmarked) [compound 408]	56	100	99	100				
Cc1ncc(C(O)c2ccc(F)cc2F)n1-c1c(F)cccc1Br (centres unmarked) [compound 409]	0	100	57	99				
Cc1ncc(C(O)c2ccc(F)cc2F)n1-c1c(F)cc(F)cc1Br (centres unmarked) [compound 410]	13	100	97	100				
COc1cc(F)c(-n2c(C)nc(Cl)c2C(O)c2ccc(F)cc2F)c(F)c1 (centres unmarked) [compound 411]					50* %	100* %	85* %	100* %
COc1cc(F)c(-n2c(C)nc(Br)c2C(O)c2ccc(F)cc2F)c(F)c1 (centres unmarked) [compound 412]					0* %	100* %	0* %	100* %
Cc1ncc(C(O)c2cccnc2F)n1-c1c(F)cc(F)cc1F (centres unmarked) [compound 413]	0	98	0	88				
Cc1nc(Br)c(C(O)c2cccnc2F)n1-c1c(F)cc(F)cc1F (centres unmarked) [compound 414]	13	100	67	100				
Cc1cc(F)ccc1C(O)c1cnc(C)n1-c1ccc(F)cc1F (centres unmarked) [compound 415]	0	18	0	74				
